Experimental data published in patent US20100227841A1, “Patient populations and treatment methods” (Harbor BioSciencs, Inc., priority 2008, published 2010).

Legend:
Type in all cases: in vivo, human
[1] = test system: pre-diabetic hyperglycemic patients and patients having type 2 diabetes; assay: Glucose clamp (M value) in 28-day clinical trial of oral capsules
Procedure: Groups of pre-diabetic hyperglycemic patients and patients having type 2 diabetes were treated for 28 days with the experimental drug 17α-ethynylandrost-5-ene-3β,7β,17β-triol (oral capsules) or with placebo. […] Placebos were obtained with each treatment cohort based on protocol randomization of 2 treated:1 placebo. The pre-diabetic patients were obese (body mass index ≧29 kg/m^2) and glucose intolerant (fasting plasma glucose <126 mg/dL; 2-hr post prandial glucose 140-200 mg/dL after 75 g oral glucose). The diabetic patients were dosed with 10 mg/day for 28 days (n=6; cohort 6). […] Patients with an M value of <5 mg glucose/kg/min (M<5) were considered insulin resistant and patients with an M value of >5 mg glucose/kg/min (M>5) were considered insulin sensitive or essentially normal for whole body glucose metabolism.
The analysis of responders used standard analysis. Due to the cohort sizes and the ongoing basis of this clinical protocol, data for surrogates that corresponded to significance at p≦0.10 (trend) were considered positive evidence of surrogacy of the biomarker for the M<5 insulin resistant condition.

[2] = test system: patients having type 2 diabetes; assay: Phase II double-blinded placebo controlled 12-week trial in type 2 diabetes patients on metformin; settings: for Fasting C-peptide Change from baseline / Fasting Glucose Change from baseline / HbA1c Change from baseline / LDL Cholesterol change from baseline / Total Cholesterol change from baseline / Weight change from baseline / HOMA2% insulin sensitivity change from baseline / HOMA2% β cell function change from baseline / HOMA2 Insulin resistance change from baseline: 5 mg twice per day + metformin; for HOMA2% insulin sensitivity change from baseline / HOMA2% β cell function change from baseline / HOMA2 Insulin resistance change from baseline: calculated using C-peptide
Procedure: Patients having type 2 diabetes were evaluated for their baseline BMI and levels of MCP1, insulin and C peptide. The effect of treatment with 17α-ethynylandrost-5-ene-3β,7β,17β-triol (5 mg administered orally twice per day for 84 days) on total cholesterol, LDL cholesterol, hemoglobin A1c (HbA1c) plus metformin (500-2250 mg/day, which was administered in one or two doses per day for 84 days), weight, and other biological responses is shown in the tables below. The effect of treatment in all treated patients was compared with the effect of the same treatment in the responder population, characterized as having a BMI>27.99 (overweight or obese), insulin resistant (C-peptide >1.99 ng/mL or essentially normal insulin >3.99 μU/mL to about 29 μU/mL with hyperglycemia), and having an elevated serum MCP1>399.99 pg/mL, indicating a state of systemic inflammation. The responder patients were a subset of all patients were treated.
The Phase II, double-blinded placebo controlled 12-week dosing trial of example 4 enrolled 96 subjects with a hemoglobin A1c (HbA1c) level in excess of 7.5 percent and were being treated with a stable metformin dose as described above. The primary objectives of this trial were to evaluate the safety and tolerance of 17α-ethynylandrost-5-ene-3β,7β,17β-triol, 10 mg per day (5 mg twice daily), compared to placebo from baseline to week 12 and to evaluate the change in HbA1c from baseline to week 12 in the 17α-ethynylandrost-5-ene-3β,7β,17β-triol treated group when compared to the placebo group.
A retrospective analysis of data was performed on the subpopulation of patients that represented an obese, insulin-resistant, diabetic population. This analysis included patients who met the following criteria at baseline: BMI greater than or equal to 28; fasting plasma insulin levels greater than or equal to 4 μU/mL; fasting plasma C-peptide levels greater than or equal to 2 ng/mL; and serum monocyte chemoattractant protein-1 (MCP1) levels greater than or equal to 400 pg/mL. This phenotype represented 35% of all 89 patients with values reported for these parameters at baseline. Twenty-two individuals with this phenotype completed the 84 days of dosing. […] These changes in secondary indicators of activity were consistent with the observed decreases in HbA1c and glucose in this diabetic subpopulation.

type 2 diabetes patients = assay: Phase 2 monotherapy protocol in treatment naive type 2 diabetes patients
Procedure: A phase 2 clinical treatment protocol was conducted in type 2 diabetes patients using a monotherapy consisting of 17α-ethynylandrost-5-ene-3β,7β,17β-triol. The patients had not been treated with another antidiabetic agent or any insulin sensitizer such as metformin for at least 90 days before the start of dosing. […] The patients (n=51) received 10 mg/day of 17α-ethynylandrost-5-ene-3β,7β,17β-triol (5 mg twice per day) for 84 days and were then followed until day 112. Effects of treatment were examined in subsets of patients having differing BMI values.

[3] = retrospective subpopulation, 84 days, compared to placebo, non-significant

Structure (SMILES): C#C[C@]1(O)CC[C@H]2[C@@H]3[C@@H](O)C=C4C[C@@H](O)CC[C@]4(C)[C@H]3CC[C@@]21C [17α-ethynylandrost-5-ene-3β,7β,17β-triol]
- minimal effective dose ([1]; 28 days, lower degree of response than higher doses): 4 mg/day
- change in M value ([1]; interim analysis, M<5, two patients treated with 20 mg/day): increased
- change in M value ([1]; interim analysis, M<5 patients, 10 mg/day (5 mg twice per day) vs placebo, p=0.0286): significantly increased
- change in M value ([1]; interim analysis, M<5 patients, pooled 10 mg/day or 20 mg/day vs placebo, p=0.0095): significantly increased
- change in M value ([1]; interim analysis, M>5 patients, 10 mg/day, 20 mg/day or pooled vs placebo): no statistically significant difference
- change in M value ([1]; interim analysis, overall protocol, 20 mg/day group, p=0.0823): trends to significance
- change in M value ([1]; interim analysis, overall protocol, 'mg/day group', p=0.0513): trends to significance
- change in M value ([1]; interim analysis, overall protocol, pooled patients, p=0.0278): significantly increased
- M value (glucose control) ([1]; one pre-diabetic hyperglycemic patient, 28 days of dosing 4 mg/day): increased
- effectiveness of treatment by M value subgroup ([1]; pre-diabetic hyperglycemic patients having M<5): most effective
- change in M value ([1]; second interim analysis, M<5, 10 mg/day vs placebo, p=0.002): significantly increased
- change in M value ([1]; second interim analysis, M<5, pooled 10 mg/day or 20 mg/day vs placebo, p=0.0007): highly significant positive change
- change in M value ([1]; second interim analysis, M>5 patients, 10 mg/day, 20 mg/day or pooled vs placebo): no statistically significant difference
- change in M value ([1]; second interim analysis, overall protocol, 10 mg/day group, p=0.04): significantly increased
- change in M value ([1]; second interim analysis, overall protocol, 20 mg/day group, p=0.04): significantly increased
- change in M value ([1]; second interim analysis, overall protocol, pooled patients, p=0.0109): significantly increased
- Fasting C-peptide Change from baseline ([2]; All patients, day 29): -0.2 ng/mL
- Fasting Glucose Change from baseline ([2]; All patients, day 29): -7.5 mg/dL
- HbA1c Change from baseline ([2]; All patients, day 29): 0 % Hb
- LDL Cholesterol change from baseline ([2]; All patients, day 29): 0.5 mg/dL
- Total Cholesterol change from baseline ([2]; All patients, day 29): -0.5 mg/dL
- Weight change from baseline ([2]; All patients, day 29): -0.4136 kg
- Fasting C-peptide Change from baseline ([2]; All patients, day 57): -0.2 ng/mL
- Fasting Glucose Change from baseline ([2]; All patients, day 57): 0 mg/dL
- HbA1c Change from baseline ([2]; All patients, day 57): 0.1 % Hb
- LDL Cholesterol change from baseline ([2]; All patients, day 57): -2 mg/dL
- Total Cholesterol change from baseline ([2]; All patients, day 57): -5.5 mg/dL
- Weight change from baseline ([2]; All patients, day 57): -0.4546 kg
- Fasting C-peptide Change from baseline ([2]; All patients, day 84): -0.05 ng/mL
- Fasting Glucose Change from baseline ([2]; All patients, day 84): -4.25 mg/dL
- HbA1c Change from baseline ([2]; All patients, day 84): 0.15 % Hb
- LDL Cholesterol change from baseline ([2]; All patients, day 84): 4.5 mg/dL
- Total Cholesterol change from baseline ([2]; All patients, day 84): 3 mg/dL
- Weight change from baseline ([2]; All patients, day 84): -0.03864 kg
- HOMA2% insulin sensitivity change from baseline ([2]; All patients, day 29): 4.2 % S
- HOMA2% β cell function change from baseline ([2]; All patients, day 29): 0.8 % b
- HOMA2 Insulin resistance change from baseline ([2]; All patients, day 29): −0.1453 IR
- HOMA2% insulin sensitivity change from baseline ([2]; All patients, day 57): 1.75 % S
- HOMA2% β cell function change from baseline ([2]; All patients, day 57): −2.15 % b
- HOMA2 Insulin resistance change from baseline ([2]; All patients, day 57): −0.0518 IR
- HOMA2% insulin sensitivity change from baseline ([2]; All patients, day 84): −1.45 % S
- HOMA2% β cell function change from baseline ([2]; All patients, day 84): 5.6 % b
- HOMA2 Insulin resistance change from baseline ([2]; All patients, day 84): 0.02309 IR
- HbA1c Change from baseline ([2]; Responder patients (BMI>27.99, insulin resistant, MCP1>399.99 pg/mL), day 29): −0.15 % Hb
- Fasting C-peptide Change from baseline ([2]; Responder patients, day 29): -0.2 ng/mL
- Fasting Glucose Change from baseline ([2]; Responder patients, day 29): -17.5 mg/dL
- LDL Cholesterol change from baseline ([2]; Responder patients, day 29): -8.5 mg/dL
- Total Cholesterol change from baseline ([2]; Responder patients, day 29): -0.5 mg/dL
- Weight change from baseline ([2]; Responder patients, day 29): -0.3727 kg
- Fasting C-peptide Change from baseline ([2]; Responder patients, day 57): 0 ng/mL
- Fasting Glucose Change from baseline ([2]; Responder patients, day 57): -7 mg/dL
- HbA1c Change from baseline ([2]; Responder patients, day 57): −0.1 % Hb
- LDL Cholesterol change from baseline ([2]; Responder patients, day 57): -11.5 mg/dL
- Total Cholesterol change from baseline ([2]; Responder patients, day 57): -18.5 mg/dL
- Weight change from baseline ([2]; Responder patients, day 57): -0.925 kg
- Fasting C-peptide Change from baseline ([2]; Responder patients, day 84): 0.25 ng/mL
- Fasting Glucose Change from baseline ([2]; Responder patients, day 84): -13 mg/dL
- HbA1c Change from baseline ([2]; Responder patients, day 84): −0.425 % Hb
- LDL Cholesterol change from baseline ([2]; Responder patients, day 84): -7.5 mg/dL
- Total Cholesterol change from baseline ([2]; Responder patients, day 84): -14.5 mg/dL
- Weight change from baseline ([2]; Responder patients, day 84): -1.33 kg
- HOMA2% insulin sensitivity change from baseline ([2]; Responder patients, day 29): 3.9 % S
- HOMA2% β cell function change from baseline ([2]; Responder patients, day 29): 2.1 % b
- HOMA2 Insulin resistance change from baseline ([2]; Responder patients, day 29): −0.3061 IR
- HOMA2% insulin sensitivity change from baseline ([2]; Responder patients, day 57): 1 % S
- HOMA2% β cell function change from baseline ([2]; Responder patients, day 57): 5.3 % b
- HOMA2 Insulin resistance change from baseline ([2]; Responder patients, day 57): −0.04016 IR
- HOMA2% insulin sensitivity change from baseline ([2]; Responder patients, day 84): −4.4 % S
- HOMA2% β cell function change from baseline ([2]; Responder patients, day 84): 16.3 % b
- HOMA2 Insulin resistance change from baseline ([2]; Responder patients, day 84): 0.2265 IR
- HbA1c, treatment vs placebo ([2]; entire 72 patient population that completed dosing on day 84): no statistical difference
- decrease in HbA1c ([2]; retrospective subpopulation (BMI>=28, insulin>=4 μU/mL, C-peptide>=2 ng/mL, MCP1>=400 pg/mL), 84 days, compared to placebo, p=0.06): −0.53%
- decrease in HOMA2 insulin resistance [2, 3]: −0.65 IR
- decrease in fasting plasma C-peptide [2, 3]: -0.43 ng/mL
- decrease in fasting plasma insulin [2, 3]: −0.48 μU/mL
- decrease in fructosamine [2, 3]: -25.75 µmol/L
- increase in HOMA2 beta cell function [2, 3]: 17.95 % B
- increase in HOMA2 insulin sensitivity [2, 3]: 11.3 % S
- decrease in fasting plasma glucose ([2]; retrospective subpopulation, 84 days, compared to placebo, p=0.09): -28.75 mg/dL
- sensitivity analysis using last observation carried forward ([2]; subpopulation individuals who completed at least 29 days of dosing): showed improvement
- C-reactive protein (type 2 diabetes patients; BMI greater than 31.3 kg/m^2, day 57, p=0.053): trend to decreased
- patients with decreased HbA1c to <7% (type 2 diabetes patients; BMI greater than 31.3 kg/m^2, day 84, placebo 0/14): 2/9
- decreases in serum MCP-1 (type 2 diabetes patients; BMI greater than 31.3 kg/m^2, days 29, 57 and 84): > 600 pg/mL
- observed effects in lower BMI subset (type 2 diabetes patients; patients having a BMI of less than about 31): less pronounced
- HbA1c decrease (type 2 diabetes patients; patients with BMI greater than 31.3 kg/m^2 (n=22), 10 mg/day for 84 days, day 112, p=0.041): 1.1%
